The nature of series [1]: Bioavailability in rat. Format: ADME, organism-based. The conditions noted are these: in vivo.
The target in series [2] is T1, Alpha-1D adrenergic receptor (Homo sapiens, UniProt P25100).
T1 sequence (P25100 whole entry): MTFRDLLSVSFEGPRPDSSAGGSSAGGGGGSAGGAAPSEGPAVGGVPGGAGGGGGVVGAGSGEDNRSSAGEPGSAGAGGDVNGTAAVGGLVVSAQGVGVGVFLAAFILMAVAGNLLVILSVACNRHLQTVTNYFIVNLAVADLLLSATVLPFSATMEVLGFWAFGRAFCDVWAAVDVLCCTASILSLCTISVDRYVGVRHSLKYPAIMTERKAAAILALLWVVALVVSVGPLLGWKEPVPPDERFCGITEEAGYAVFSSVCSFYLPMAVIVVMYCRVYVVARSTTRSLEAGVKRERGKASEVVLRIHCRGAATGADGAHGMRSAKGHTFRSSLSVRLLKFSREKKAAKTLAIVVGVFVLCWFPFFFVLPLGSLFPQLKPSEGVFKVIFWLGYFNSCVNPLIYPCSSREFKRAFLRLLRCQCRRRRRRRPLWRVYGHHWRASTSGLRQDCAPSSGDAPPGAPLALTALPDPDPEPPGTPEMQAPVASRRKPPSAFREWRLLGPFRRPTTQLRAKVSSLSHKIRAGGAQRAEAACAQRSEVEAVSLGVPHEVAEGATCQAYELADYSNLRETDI
In words: Ability to displace [125I]- HEAT from human cloned Alpha-1D adrenergic receptor stably expressed in HEK cells. It is filed as cell-based, HEK293.

The target in series [3] is T2, Alpha-1B adrenergic receptor (Homo sapiens, UniProt P35368).
T2 sequence (P35368 whole entry): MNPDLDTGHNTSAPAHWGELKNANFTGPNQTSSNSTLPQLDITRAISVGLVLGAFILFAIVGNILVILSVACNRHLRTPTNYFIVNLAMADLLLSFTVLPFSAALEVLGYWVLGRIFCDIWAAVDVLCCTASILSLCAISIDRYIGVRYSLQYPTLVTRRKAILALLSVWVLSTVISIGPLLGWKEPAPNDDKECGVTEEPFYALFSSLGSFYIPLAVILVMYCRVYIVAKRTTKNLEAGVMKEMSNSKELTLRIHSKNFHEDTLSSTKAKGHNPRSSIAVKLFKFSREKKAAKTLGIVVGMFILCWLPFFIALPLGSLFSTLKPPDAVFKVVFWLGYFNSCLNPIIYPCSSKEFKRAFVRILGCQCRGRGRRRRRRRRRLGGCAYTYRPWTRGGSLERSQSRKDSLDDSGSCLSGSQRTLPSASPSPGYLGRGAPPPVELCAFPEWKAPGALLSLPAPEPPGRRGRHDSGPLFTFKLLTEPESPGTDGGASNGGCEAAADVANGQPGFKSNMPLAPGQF
In words: Ability to displace [125I]- HEAT from human cloned Alpha-1B adrenergic receptor stably expressed in LM cells. Format: cell-based.

In series [4] the target is T3, Alpha-1A adrenergic receptor (Homo sapiens, UniProt P35348).
T3 sequence (P35348 whole entry): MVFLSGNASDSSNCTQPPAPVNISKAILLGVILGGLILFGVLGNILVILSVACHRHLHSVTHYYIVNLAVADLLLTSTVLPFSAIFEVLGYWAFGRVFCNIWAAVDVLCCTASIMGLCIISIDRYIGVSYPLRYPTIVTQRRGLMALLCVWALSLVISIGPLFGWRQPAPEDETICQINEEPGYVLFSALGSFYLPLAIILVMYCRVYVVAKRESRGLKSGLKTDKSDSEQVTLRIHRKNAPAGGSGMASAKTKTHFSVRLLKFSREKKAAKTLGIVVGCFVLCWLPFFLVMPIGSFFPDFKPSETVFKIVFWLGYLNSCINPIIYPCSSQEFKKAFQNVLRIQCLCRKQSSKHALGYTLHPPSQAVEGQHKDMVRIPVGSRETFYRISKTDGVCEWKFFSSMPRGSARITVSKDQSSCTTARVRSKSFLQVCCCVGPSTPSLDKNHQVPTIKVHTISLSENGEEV
The series is described as follows: Ability to displace [125I]- HEAT from human cloned Alpha-1A adrenergic receptor stably expressed in CHO cells. It is filed as cell-based.

The species named for series [5] is Rattus norvegicus. In words: Evaluated for the inhibition of A61603-induced prostate contraction in rat. Format: functional, Prostate gland.
The species named for series [6] is Rattus norvegicus. In words: Duration of action with repeated challenges of A61603 agonist in rat. Format: functional.
The nature of series [7]: t1/2 in rat. The note with it: in vivo. It is filed as ADME, organism-based.
Series [8] in a line: Bioavailability in dog (dose 0.5 mg/kg i.v. and 1 mg/kg p.o.). Format: ADME, organism-based, Canis lupus familiaris. The note with it: in vivo, po.
Series [9] in a line: Plasma half-life from intravenous dose in dog. Format: ADME, organism-based, Canis lupus familiaris.
Series [10] concerns the target T1, Alpha-1D adrenergic receptor. In words: Evaluated for the ability to displace [125I]- HEAT from human cloned Alpha-1D adrenergic receptor stably expressed in HEK cells. Format: cell-based, HEK293.
The target of series [11] is T3, Alpha-1A adrenergic receptor. The series is described as follows: Evaluated for the ability to displace [125I]- HEAT from human cloned Alpha-1A adrenergic receptor stably expressed in CHO cells. Format: cell-based.
Series [12] deals with T2, Alpha-1B adrenergic receptor. In words: Evaluated for the ability to displace [125I]- HEAT from human cloned Alpha-1B adrenergic receptor stably expressed in LM cells. Format: cell-based.
For series [13], the species on record is Canis familiaris. The series is described as follows: Compound was evaluated for the inhibition of phenylephrine-induced contraction in dog. It is filed as functional, Canis lupus familiaris.
The species named for series [14] is Canis familiaris. The series is described as follows: Dose effecting a 20 mmHg change in diastolic blood pressure in dog. Format: functional, Canis lupus familiaris, Artery.

We go through nine molecules from ChEMBL document CHEMBL1133772, “In vitro and in vivo evaluation of dihydropyrimidinone C-5 amides as potent and selective alpha(1A) receptor antagonists for the treatment of benign prostatic hyperplasia” (J Med Chem, 2000).

By bioavailability is commonly meant the share of a dose that reaches the circulation, judged against a reference dose that is usually intravenous. A low value points to poor availability. As usually defined, the Ki is a measure of affinity in units of concentration, obtained from inhibition or displacement. Lower therefore signals tighter binding. For orientation: half-life means how long it takes for the measured level to halve. A high value points to slow loss.

Regarding `CC1=C(C(=O)NCCCN2CCC(c3ccc(F)cc3)CC2)[C@@H](c2ccc(F)c(F)c2)N(C)C(=O)N1C`, the bioavailability in [1] is 17%. Besides, the Ki stood at 200 nM in series [2], 20 nM in series [3] and 0.18 nM in series [4]. The molecule also returned an AD50 in series [5] of 9 µg/kg. The Duration in series [6] was found to be 1 h. Moreover, the half-life in series [7] is 2.3 h.

With `CC1=C(C(=O)NCCCN2CCC(c3ccc(F)cc3C#N)CC2)[C@@H](c2ccc(F)c(F)c2)NC(=O)N1C`, the bioavailability amounted to 15% in [1] and 27% in series [8]. The values for the half-life in series [9] and in [7] were 2.13 h and 2.2 h, respectively. In addition, the values for the Ki in [10], in [11] and in series [12] were 340 nM, 0.12 nM and 130 nM, respectively. The AD50 was determined as 10 µg/kg in [13] and 7 µg/kg in series [5]. Further, in series [14], the DBP-20 is above 300 µg/kg. For the same molecule, in [6], the Duration was 2.5 h.

In the case of `O=C1NC=C(C(=O)NCCCN2CCC(c3ccc(F)cc3)CC2)[C@@H](c2ccc(F)c(F)c2)N1`, the bioavailability in [1] amounted to 0%. In addition, the results for the Ki in series [10], in [11] and in series [12] were 68 nM, 0.17 nM and 24 nM, respectively. The AD50 is 21 µg/kg in series [13] and 2.2 µg/kg in [5]. For the same molecule, the DBP-20 in [14] is above 300 µg/kg. The Duration in [6] is 0.5 h. The molecule also yielded a half-life in series [7] of 1 h.

In turn, `CC1=C(C(=O)NCCCN2CCC(c3ccc(F)cc3)CC2)[C@@H](c2ccc(F)c(F)c2)NC(=O)N1` gave a bioavailability in series [1] below 6%. In addition, the results for the Ki in [2], in [12] and in [4] were 240 nM, 40 nM and 0.39 nM, respectively. Further, the AD50 in [13] turned out to be 7 µg/kg; in series [5], 1.8 µg/kg. Also, in series [14], the DBP-20 is 143 µg/kg. Also, the Duration in series [6] was 0.5 h. For the same molecule, the half-life in series [7] turned out to be 1.7 h.

Consider `CN1C=C(C(=O)NCCCN2CCC(C#N)(c3ccc(F)cc3)CC2)[C@H](c2ccc(F)c(F)c2)NC1=O`, for which, in series [1], the bioavailability turned out to be 8%. Further, the inhibitory constant (Ki) in series [2] was found to be 710 nM; in [3] it was 320 nM; in [4] it was 2.3 nM. Moreover, in series [5], the AD50 amounted to 145 µg/kg. Besides, in [7], the half-life stood at 1.2 h.

For `CC1=C(C(=O)NCCCN2CCC(c3ccc(F)cc3)CC2)[C@@H](c2ccc(F)c(F)c2)NC(=O)N1C`, the bioavailability in [1] is below 6%. Also, the Ki turned out to be 590 nM in series [2], 120 nM in series [3] and 0.18 nM in series [4]. The AD50 in series [5] worked out at 20 µg/kg. The molecule also returned a Duration in series [6] of 2.5 h. For the same molecule, in series [7], the half-life came out at 1.2 h.

The molecule `CN1C=C(C(=O)NCCCN2CCC(C#N)(c3ccc(F)cc3)CC2)[C@@H](c2ccc(F)c(F)c2)NC1=O` gave a bioavailability in series [1] below 6%. Moreover, the Ki in series [2] came to 240 nM; in [3] it was 53 nM; in series [4], 0.12 nM. Moreover, the AD50 in series [5] worked out at 14 µg/kg. The Duration in series [6] is 4 h. In addition, the half-life in [7] came to 1.1 h.

Turning to `CC1=C(C(=O)NCCCN2CCC(c3ccc(F)cc3C#N)CC2)[C@@H](c2ccc(F)c(F)c2)NC(=O)N1`, in series [1], the bioavailability was found to be 0%. Further, the Ki stood at 215 nM in series [10], 0.17 nM in series [11] and 87 nM in series [12]. In addition, the figures for the AD50 in series [13] and in series [5] were 5 µg/kg and 1.5 µg/kg, respectively. The DBP-20 in series [14] is above 300 µg/kg. Besides, in series [6], the Duration worked out at 1.5 h. Further, in [7], the half-life came to 0.417 h.

In the case of `COCC1=C(C(=O)NCCCN2CCC(c3ccccn3)CC2)[C@@H](c2ccc(F)c(F)c2)NC(=O)N1`, the bioavailability in series [1] came out at 0%; in [8], 48%. The results for the half-life in series [9] and in [7] were 5.58 h and 7 h, respectively. Besides, the Ki was determined as 495 nM in series [10], 0.45 nM in [11] and 235 nM in series [12]. Also, the AD50 in series [5] is 12 µg/kg. In series [6], this molecule yielded a Duration of 0.25 h.
